Measured values published in PubChem BioAssay (NCI).
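Results reflect a 48-hour exposure of cells in 96-well plates to compound at five concentrations. TGI: concentration producing complete growth inhibition.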

Experiments:
Experiment in all cases: growth of human tumour cells (NCI), 48 h
ACHN renal = test system: ACHN renal
A549 NSCLC = test system: A549 NSCLC
CAKI-1 renal = test system: CAKI-1 renal
RPMI-8226 leukemia = test system: RPMI-8226 leukemia
LOX IMVI melanoma = test system: LOX IMVI melanoma
SNB-75 CNS = test system: SNB-75 CNS
EKVX NSCLC = test system: EKVX NSCLC
SK-OV-3 ovarian = test system: SK-OV-3 ovarian
NCI/ADR-RES ovarian = test system: NCI/ADR-RES ovarian
HT29 colon = test system: HT29 colon
OVCAR-5 ovarian = test system: OVCAR-5 ovarian
DU-145 prostate = test system: DU-145 prostate

O=C(/C=C/c1ccc(Oc2cc(C(=O)/C=C/c3ccc(O)cc3)c(O)cc2O)cc1)c1ccc(O)cc1O
TGI (ACHN renal): 22.2 µM | TGI (A549 NSCLC): 99.5 µM | TGI (CAKI-1 renal): 18.1 µM | TGI (RPMI-8226 leukemia): 8.09 µM | TGI (LOX IMVI melanoma): 28.6 µM | TGI (SNB-75 CNS): 9.68 µM | TGI (EKVX NSCLC): 27.9 µM | TGI (SK-OV-3 ovarian): 8.88 µM | TGI (NCI/ADR-RES ovarian): 22.7 µM | TGI (HT29 colon): 3.57 µM | TGI (OVCAR-5 ovarian): 16.7 µM | TGI (DU-145 prostate): 12.8 µM

NC(=O)C(=CNC(=S)Nc1ccccc1)C(N)=O
TGI (ACHN renal): > 100 µM | TGI (A549 NSCLC): > 100 µM | TGI (CAKI-1 renal): > 100 µM | TGI (RPMI-8226 leukemia): > 100 µM | TGI (LOX IMVI melanoma): > 100 µM | TGI (SNB-75 CNS): > 100 µM | TGI (EKVX NSCLC): > 100 µM | TGI (SK-OV-3 ovarian): > 100 µM | TGI (NCI/ADR-RES ovarian): > 100 µM | TGI (HT29 colon): > 100 µM | TGI (OVCAR-5 ovarian): > 100 µM | TGI (DU-145 prostate): > 100 µM

C[N+](C)(C)c1ncnc2c1ncn2C1CC(O)C(CO)O1 (stereo not drawn)
TGI (ACHN renal): > 100 µM | TGI (A549 NSCLC): > 100 µM | TGI (CAKI-1 renal): > 100 µM | TGI (RPMI-8226 leukemia): > 100 µM | TGI (LOX IMVI melanoma): > 100 µM | TGI (SNB-75 CNS): > 100 µM | TGI (EKVX NSCLC): > 100 µM | TGI (SK-OV-3 ovarian): > 100 µM | TGI (NCI/ADR-RES ovarian): > 100 µM | TGI (HT29 colon): > 100 µM | TGI (OVCAR-5 ovarian): > 100 µM | TGI (DU-145 prostate): > 100 µM

N#Cc1nc(-c2ccco2)oc1N
TGI (ACHN renal): > 10 µM | TGI (A549 NSCLC): > 10 µM | TGI (CAKI-1 renal): > 10 µM | TGI (RPMI-8226 leukemia): > 10 µM | TGI (LOX IMVI melanoma): > 10 µM | TGI (SNB-75 CNS): > 10 µM | TGI (EKVX NSCLC): > 10 µM | TGI (SK-OV-3 ovarian): > 10 µM | TGI (NCI/ADR-RES ovarian): > 10 µM | TGI (HT29 colon): > 10 µM | TGI (OVCAR-5 ovarian): > 10 µM | TGI (DU-145 prostate): > 10 µM

CCOC(=O)c1c(C)n(-c2ccc(Cl)cc2)c2c1cc(O)c1[nH]c3c(c12)CCCC3
TGI (ACHN renal): > 100 µM | TGI (A549 NSCLC): > 100 µM | TGI (CAKI-1 renal): > 100 µM | TGI (RPMI-8226 leukemia): > 100 µM | TGI (LOX IMVI melanoma): > 100 µM | TGI (SNB-75 CNS): > 100 µM | TGI (EKVX NSCLC): > 100 µM | TGI (SK-OV-3 ovarian): > 100 µM | TGI (NCI/ADR-RES ovarian): > 100 µM | TGI (HT29 colon): > 100 µM | TGI (OVCAR-5 ovarian): > 100 µM | TGI (DU-145 prostate): > 100 µM

O=[N+]([O-])c1ccc(C(=S)Nc2ccccc2)o1
TGI (ACHN renal): 6.66 µM | TGI (A549 NSCLC): 22.4 µM | TGI (CAKI-1 renal): 13.9 µM | TGI (RPMI-8226 leukemia): 4.9 µM | TGI (LOX IMVI melanoma): 8.6 µM | TGI (SNB-75 CNS): 30.4 µM | TGI (EKVX NSCLC): 12.5 µM | TGI (SK-OV-3 ovarian): 24 µM | TGI (NCI/ADR-RES ovarian): 9.4 µM | TGI (HT29 colon): 5.86 µM | TGI (OVCAR-5 ovarian): 17.6 µM | TGI (DU-145 prostate): 19.9 µM

O=c1[nH]nc(Cc2ccccc2)n1C1CCCC1
TGI (ACHN renal): > 100 µM | TGI (A549 NSCLC): > 100 µM | TGI (CAKI-1 renal): > 100 µM | TGI (RPMI-8226 leukemia): > 100 µM | TGI (LOX IMVI melanoma): > 100 µM | TGI (SNB-75 CNS): > 100 µM | TGI (EKVX NSCLC): > 100 µM | TGI (SK-OV-3 ovarian): > 100 µM | TGI (NCI/ADR-RES ovarian): > 100 µM | TGI (HT29 colon): > 100 µM | TGI (OVCAR-5 ovarian): > 100 µM | TGI (DU-145 prostate): > 100 µM

COc1cc2c(c(O)c1OC)C(=O)[C@@H]1CCC(=O)N1C2
TGI (ACHN renal): > 100 µM | TGI (A549 NSCLC): > 100 µM | TGI (CAKI-1 renal): > 100 µM | TGI (RPMI-8226 leukemia): > 100 µM | TGI (LOX IMVI melanoma): > 100 µM | TGI (SNB-75 CNS): > 100 µM | TGI (EKVX NSCLC): > 100 µM | TGI (SK-OV-3 ovarian): > 100 µM | TGI (NCI/ADR-RES ovarian): > 100 µM | TGI (HT29 colon): > 100 µM | TGI (OVCAR-5 ovarian): > 100 µM | TGI (DU-145 prostate): > 100 µM

Cc1cn(CCCCC2=NCCCN2)c(=O)[nH]c1=O
TGI (ACHN renal): > 31 µM | TGI (A549 NSCLC): > 54.4 µM | TGI (CAKI-1 renal): > 23.4 µM | TGI (RPMI-8226 leukemia): > 100 µM | TGI (LOX IMVI melanoma): > 32.6 µM | TGI (SNB-75 CNS): > 28.6 µM | TGI (EKVX NSCLC): > 42 µM | TGI (SK-OV-3 ovarian): > 40.7 µM | TGI (NCI/ADR-RES ovarian): > 67.5 µM | TGI (HT29 colon): > 23.1 µM | TGI (OVCAR-5 ovarian): > 42.5 µM | TGI (DU-145 prostate): > 34.4 µM

CCOP1(=O)CC(C)=C(Cl)C(O)C1 (stereo not drawn)
TGI (ACHN renal): > 100 µM | TGI (A549 NSCLC): > 100 µM | TGI (CAKI-1 renal): > 100 µM | TGI (RPMI-8226 leukemia): > 100 µM | TGI (LOX IMVI melanoma): > 100 µM | TGI (SNB-75 CNS): > 100 µM | TGI (EKVX NSCLC): > 100 µM | TGI (SK-OV-3 ovarian): > 100 µM | TGI (NCI/ADR-RES ovarian): > 100 µM | TGI (HT29 colon): > 100 µM | TGI (OVCAR-5 ovarian): > 100 µM | TGI (DU-145 prostate): > 100 µM

COc1ccc(OC)c(N(CN2C(=O)CCC2C(=O)O)C(C)=O)c1 (stereo not drawn)
TGI (ACHN renal): > 100 µM | TGI (A549 NSCLC): > 100 µM | TGI (CAKI-1 renal): > 100 µM | TGI (RPMI-8226 leukemia): > 100 µM | TGI (LOX IMVI melanoma): > 100 µM | TGI (SNB-75 CNS): > 100 µM | TGI (EKVX NSCLC): > 100 µM | TGI (SK-OV-3 ovarian): > 100 µM | TGI (NCI/ADR-RES ovarian): > 100 µM | TGI (HT29 colon): > 100 µM | TGI (OVCAR-5 ovarian): > 100 µM | TGI (DU-145 prostate): > 100 µM

COc1ccc(OC)c(CNc2ccc(C(=O)O)cc2)c1
TGI (ACHN renal): > 100 µM | TGI (A549 NSCLC): > 100 µM | TGI (CAKI-1 renal): > 100 µM | TGI (RPMI-8226 leukemia): > 100 µM | TGI (LOX IMVI melanoma): > 100 µM | TGI (SNB-75 CNS): > 100 µM | TGI (EKVX NSCLC): > 100 µM | TGI (SK-OV-3 ovarian): > 100 µM | TGI (NCI/ADR-RES ovarian): > 100 µM | TGI (HT29 colon): > 100 µM | TGI (OVCAR-5 ovarian): > 100 µM | TGI (DU-145 prostate): > 100 µM

COC(=O)[C@]1(NC(=O)c2ccccc2)C[C@H]1C=O
TGI (ACHN renal): > 100 µM | TGI (A549 NSCLC): > 100 µM | TGI (CAKI-1 renal): > 100 µM | TGI (RPMI-8226 leukemia): > 100 µM | TGI (LOX IMVI melanoma): > 100 µM | TGI (SNB-75 CNS): > 100 µM | TGI (EKVX NSCLC): > 100 µM | TGI (SK-OV-3 ovarian): > 100 µM | TGI (NCI/ADR-RES ovarian): > 100 µM | TGI (HT29 colon): > 100 µM | TGI (OVCAR-5 ovarian): > 100 µM | TGI (DU-145 prostate): > 100 µM

CCOC(=O)C1(F)S(=O)(=O)OCCOS1(=O)=O
TGI (ACHN renal): > 100 µM | TGI (A549 NSCLC): > 100 µM | TGI (CAKI-1 renal): > 100 µM | TGI (RPMI-8226 leukemia): > 100 µM | TGI (LOX IMVI melanoma): > 100 µM | TGI (SNB-75 CNS): > 100 µM | TGI (EKVX NSCLC): > 100 µM | TGI (SK-OV-3 ovarian): > 100 µM | TGI (NCI/ADR-RES ovarian): > 100 µM | TGI (HT29 colon): > 100 µM | TGI (OVCAR-5 ovarian): > 100 µM | TGI (DU-145 prostate): > 100 µM
